Measurements as given in patent US10183950B2, “Thienopyrimidine inhibitors of atypical protein kinase C” (Cancer Research Technology Limited, priority 2011, dated 2019).

target: T1, kinase-domain human PKCι (Homo sapiens, UniProt P41743); assay: PKCι IC50 IMAP fluorescence polarisation assay, kinase-domain enzyme; type: biochemical; conditions: kinase domain PKCi at 2 μM ATP; read-out: IC50 in IMAP assay against kinase domain PKCi
T1 construct: Recombinant, kinase-domain human PKCι is expressed and purified in-house; made in house
T1 sequence (P41743 254-522 limits assumed): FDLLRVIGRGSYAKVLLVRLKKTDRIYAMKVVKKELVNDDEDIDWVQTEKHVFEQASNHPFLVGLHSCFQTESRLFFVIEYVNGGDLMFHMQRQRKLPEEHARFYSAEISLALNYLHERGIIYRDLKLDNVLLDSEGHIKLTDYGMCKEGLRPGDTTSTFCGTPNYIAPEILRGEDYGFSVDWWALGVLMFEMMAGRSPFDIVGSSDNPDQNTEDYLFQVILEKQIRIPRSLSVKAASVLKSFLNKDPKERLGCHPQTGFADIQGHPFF

IC50 [nM]	Compound
100 to 1000	Cc1cc(C)c2c(n1)sc1c(NC[C@H](C)N)nc(-c3ccncc3)nc12 [compound 382, (S)-N*1*-(7,9-Dimethyl-2-pyridin-4-yl-pyrido[3′,2′:4,5]thieno[3,2-d]pyrimidin-4-yl)-propane-1,2-diamine]
100 to 1000	Clc1cccc2sc3c(N4CCNCC4)nc(-c4ccncc4)nc3c12 [compound 387, 9-Chloro-4-piperazin-1-yl-2-pyridin-4-yl-benzo[4,5]thieno[3,2-d]pyrimidine]
10000 to 40000	Cc1csc2c(OC[C@H](N)Cc3ccccc3)nc(-c3ccncc3)nc12 [compound 482, (R)-1-(7-Methyl-2-pyridin-4-yl-thieno[3,2-d]pyrimidin-4-yloxymethyl)-2-phenyl-ethylamine]
10000 to 40000	CC(C)(C)c1cc2nc(-c3ccncc3)nc(NCCN)c2s1 [compound 311, N*1*-(6-tert-Butyl-2-pyridin-4-yl-thieno[3,2-d]pyrimidin-4-yl)-ethane-1,2-diamine]
100 to 1000	C[C@@H](N)CNc1nc(-c2ccncc2)nc2c1sc1cccc(Cl)c12 [compound 374, (R)-N*1*-(9-Chloro-2-pyridin-4-yl-benzo[4,5]thieno[3,2-d]pyrimidin-4-yl)-propane-1,2-diamine]
100 to 1000	NCCNc1nc(-c2ccncc2)nc2c1sc1cccc(Cl)c12 [compound 386, N*1*-(9-Chloro-2-pyridin-4-yl-benzo[4,5]thieno[3,2-d]pyrimidin-4-yl)-ethane-1,2-diamine]
1000 to 10000	c1ccc(-c2cc3nc(-c4ccncc4)nc(N4CCCNCC4)c3s2)cc1 [compound 368, 4-[1,4]Diazepan-1-yl-6-phenyl-2-pyridin-4-yl-thieno[3,2-d]pyrimidine]
100 to 1000	Cc1csc2c(NCCN)nc(-c3ccncc3)nc12 [compound 370, N*1*-(7-Methyl-2-pyridin-4-yl-thieno[3,2-d]pyrimidin-4-yl)-ethane-1,2-diamine]
1000 to 10000	Cc1csc2c(N(C)CCN)nc(-c3ccncc3)nc12 [compound 365, N*1*-Methyl-N*1*-(7-methyl-2-pyridin-4-yl-thieno[3,2-d]pyrimidin-4-yl)-ethane-1,2-diamine]
1000 to 10000	Cc1csc2c(N[C@@H]3CCNC3)nc(-c3ccncc3)nc12 [compound 312, (7-Methyl-2-pyridin-4-yl-thieno[3,2-d]pyrimidin-4-yl)-(R)-pyrrolidin-3-yl-amine]

same assay, conditions: kinase domain PKCi at 2 μM ATP; read-out: IC50 in IMAP assay against kinase domain PKCi (Activity)

IC50 [nM]	Compound
100 to 1000	CNCCNc1nc(-c2ccncc2)nc2sc3c(c12)CCCC3 [compound 13, N-Methyl-N′-(2-pyridin-4-yl-5,6,7,8-tetrahydro-benzo[4,5]thieno[2,3-d]pyrimidin-4-yl)-ethane-1,2-diamine]
100 to 1000	CN1CCCN(c2nc(-c3ccncc3)nc3sc4c(c23)CCCC4)CC1 [compound 4, 4-(4-Methyl-[1,4]diazepan-1-yl)-2-pyridin-4-yl-5,6,7,8-tetrahydro-benzo[4,5]thieno[2,3-d]pyrimidine]
100 to 1000	c1cc(-c2nc(N[C@@H]3CCNC3)c3c4c(sc3n2)CCCC4)ccn1 [compound 19, (2-pyridin-4-yl-5,6,7,8-tetrahydro-benzo[4,5]thieno[2,3-d]pyrimidin-4-yl)-(R)-pyrrolidin-3-yl-amine]
1000 to 10000	c1cc(CN2CCN(c3nc(-c4ccncc4)nc4sc5c(c34)CCCC5)CC2)ccn1 [compound 118, 2-Pyridin-4-yl-4-(4-pyridin-4-ylmethyl-piperazin-1-yl)-5,6,7,8-tetrahydro-benzo[4,5]thieno[2,3-d]pyrimidine]
1000 to 10000	CC[C@@H](N)COc1nc(-c2ccncc2)nc2sc3c(c12)CCCC3 [compound 149, (R)-1-(2-Pyridin-4-yl-5,6,7,8-tetrahydro-benzo[4,5]thieno[2,3-d]pyrimidin-4-yloxymethyl)-propylamine]
10000 to 40000	CC(C)c1cc2c(NC[C@@H](C)N)nc(-c3ccncc3)nc2s1 [compound 41, (R)-N*1*-(6-Isopropyl-2-pyridin-4-yl-thieno[2,3-d]pyrimidin-4-yl)-propane-1,2-diamine]
10000 to 40000	Clc1ccccc1CN1CCN(c2nc(-c3ccncc3)nc3sc4c(c23)CCCC4)CC1 [compound 123, 4-[4-(2-Chloro-benzyl)-piperazin-1-yl]-2-pyridin-4-yl-5,6,7,8-tetrahydro-benzo[4,5]thieno[2,3-d]pyrimidine]
1000 to 10000	C[C@H](N)CNc1nc(-c2ccncc2F)nc2sc3c(c12)CCCC3 [compound 99, (S)-N*1*-[2-(3-Fluoro-pyridin-4-yl)-5,6,7,8-tetrahydro-benzo[4,5]thieno[2,3-d]pyrimidin-4-yl]-propane-1,2-diamine]
1000 to 10000	CSCC[C@@H](N)CNc1nc(-c2ccncc2)nc2sc3c(c12)CCCC3 [compound 6, (R)-4-Methylsulfanyl-N*1*- (2-pyridin-4-yl-5,6,7,8-tetrahydro-benzo[4,5]thieno[2,3-d]pyrimidin-4-yl)-butane-1,2-diamine]
1000 to 10000	CCN1CCN(c2nc(-c3ccncc3)nc3sc4c(c23)CCCC4)CC1 [compound 119, 4-(4-Ethyl-piperazin-1-yl)-2-pyridin-4-yl-5,6,7,8-tetrahydro-benzo[4,5]thieno[2,3-d]pyrimidine]
1000 to 10000	N[C@H](COc1nc(-c2ccncc2)nc2sc3c(c12)CCCC3)Cc1ccccc1F [compound 164, (S)-1-(2-Fluoro-benzyl)-2-(2-pyridin-4-yl-5,6,7,8-tetrahydro-benzo[4,5]thieno[2,3-d]pyrimidin-4-yloxy)-ethylamine]
1000 to 10000	C[C@@H](N)CNc1nc(-c2ccncc2F)nc2sc3c(c12)CCCC3 [compound 100, (R)-N*1*-[2-(3-Fluoro-pyridin-4-yl)-5,6,7,8-tetrahydro-benzo[4,5]thieno[2,3-d]pyrimidin-4-yl]-propane-1,2-diamine]
100 to 1000	Cc1n[nH]c(C)c1-c1nc(N[C@@H]2CCNC2)c2c3c(sc2n1)CCCC3 [compound 194, [2-(3,5-Dimethyl-1H-pyrazol-4-yl)-5,6,7,8-tetrahydro-benzo[4,5]thieno[2,3-d]pyrimidin-4-yl]-(R)-pyrrolidin-3-yl-amine]
1000 to 10000	c1ccc(-c2cc3nc(-c4ccncc4)nc(N4CCNCC4)c3s2)cc1 [compound 301, 6-phenyl-4-piperazin-1-yl-2-pyridin-4-yl-thieno[3,2-d]pyrimidine]
10000 to 40000	N[C@H](COc1nc(-c2ccncc2)nc2sc3c(c12)CCCC3)Cc1csc2ccccc12 [compound 177, (S)-1-Benzo[b]thiophen-3-ylmethyl-2-(2-pyridin-4-yl-5,6,7,8-tetrahydro-benzo[4,5]thieno[2,3-d]pyrimidin-4-yloxy)-ethylamine]
1000 to 10000	CC1CCc2c(sc3nc(-c4ccncc4)nc(NC[C@H](C)N)c23)C1 (stereo partly drawn) [compound 22, (S)-N*1*-(7-Methyl-2-pyridin-4-yl-5,6,7,8-tetrahydro-benzo[4,5]thieno[2,3-d]pyrimidin-4-yl)-propane-1,2-diamine]
1000 to 10000	Cc1sc2nc(-c3ccncc3)nc(N3CCCNCC3)c2c1-c1ccccc1 [compound 92, 4-[1,4]Diazepan-1-yl-6-methyl-5-phenyl-2-pyridin-4-yl-thieno[2,3-d]pyrimidine]
10000 to 40000	N[C@H](COc1nc(-c2ccncc2)nc2sc3c(c12)CCCC3)Cc1ccc(F)cc1 [compound 162, (S)-1-(4-Fluoro-benzyl)-2-(2-pyridin-4-yl-5,6,7,8-tetrahydro-benzo[4,5]thieno[2,3-d]pyrimidin-4-yloxy)-ethylamine]
100 to 1000	c1n[nH]cc1-c1nc(N[C@@H]2CCNC2)c2c3c(sc2n1)CCCC3 [compound 189, [2-(1H-Pyrazol-4-yl)-5,6,7,8-tetrahydro-benzo[4,5]thieno[2,3-d]pyrimidin-4-yl]-(R)-pyrrolidin-3-yl-amine]
1000 to 10000	Brc1ccc(-c2csc3nc(-c4ccncc4)nc(N4CCCNCC4)c23)cc1 [compound 93, 5-(4-Bromo-phenyl)-4-[1,4]diazepan-1-yl-2-pyridin-4-yl-thieno[2,3-d]pyrimidine]
10000 to 40000	N[C@@H](COc1nc(-c2ccncc2)nc2sc3c(c12)CCCC3)Cc1csc2ccccc12 [compound 176, (R)-1-Benzo[b]thiophen-3-ylmethyl-2-(2-pyridin-4-yl-5,6,7,8-tetrahydro-benzo[4,5]thieno[2,3-d]pyrimidin-4-yloxy)-ethylamine]
10000 to 40000	Clc1ccc(CN2CCN(c3nc(-c4ccncc4)nc4sc5c(c34)CCCC5)CC2)cc1 [compound 122, 4-[4-(4-Chloro-benzyl)-piperazin-1-yl]-2-pyridin-4-yl-5,6,7,8-tetrahydro-benzo[4,5]thieno[2,3-d]pyrimidine]
1000 to 10000	COc1ccc(C[C@H](N)COc2nc(-c3ccncc3)nc3sc4c(c23)CCCC4)cc1 [compound 159, (S)-1-(4-methoxy-benzyl)-2-(2-pyridin-4-yl-5,6,7,8-tetrahydro-benzo[4,5]thieno [2,3-d]pyrimidin-4-yloxy)-ethylamine]
10000 to 40000	N[C@@H](COc1nc(-c2ccncc2)nc2sc3c(c12)CCCC3)Cc1ccc2ccccc2c1 [compound 172, (R)-1-Naphthalen-2-ylmethyl-2-(2-pyridin-4-yl-5,6,7,8-tetrahydro-benzo[4,5]thieno[2,3-d]pyrimidin-4-yloxy)-ethylamine]
1000 to 10000	N[C@@H](CNc1nc(-c2ccncc2)nc2sc3c(c12)CCCC3)Cc1c[nH]c2ccccc12 [compound 7, (R)-3-(1H-Indol-3-yl)-N*1*- (2-pyridin-4-yl-5,6,7,8-tetrahydro-benzo[4,5]thieno[2,3-d]pyrimidin-4-yl)-propane-1,2-diamine]
1000 to 10000	Cc1sc2nc(-c3ccncc3)nc(NCCN)c2c1-c1ccccc1 [compound 91, N*1*-(6-Methyl-5-phenyl-2-pyridin-4-yl-thieno[2,3-d]pyrimidin-4-yl)-ethane-1,2-diamine]
